Measurements as given in PMC5966831 (Biochemistry, 2013).
Read-outs that look alike come from different tables or passages of the source.

B1: E. coli RBP: Escherichia coli ribose binding protein (protein, UniProt P02925 26-296, looked up)
Ribose import binding protein …: KDTIALVVSTLNNPFFVSLKDGAQKEADKLGYNLVVLDSQNNPAKELANVQDLTVRGTKILLINPTDSDAVGNAVKMANQANIPVITLDRQATKGEVVSHIASDNVLGGKIAGDYIAKKAGEGAKVIELQGIAGTSAARERGEGFQQAVAAHKFNVLASQPADFDRIKGLNVMQNLLTAHPDVQAVFAQNDEMALGALRALQTAGKSDVMVVGFDGTPDGEKAVNDGKLAATIAQLPDQIGAKGVETADKVLKGEKVQAKYPVDLKLVVKQ

Experiments:
N′60 = N′60 (Caldanaerobacter subterraneus, UniProt Q8RD41, C137S/L167D); assay type: binding; details: SD, n = 3
N′70 = N′70 (Caldanaerobacter subterraneus, UniProt Q8RD41, C137S/L167D); assay type: binding; details: SD, n = 3
N′186 = N′186 (Caldanaerobacter subterraneus, UniProt Q8RD41, C137S/L167D); assay type: binding; details: SD, n = 3
N′210 = N′210 (Caldanaerobacter subterraneus, UniProt Q8RD41, C137S/L167D); assay type: binding; details: SD, n = 3
AFF70 [1] = target: T1, AFF70 (Caldanaerobacter subterraneus, UniProt Q8RD41, C137S/F53A/F54A/INS105C/L167D); assay type: binding; details: SD, n = 3
AFF186 [2] = target: T2, AFF186 (Caldanaerobacter subterraneus, UniProt Q8RD41, C137S/D254S/INS221C/L167D); assay type: binding; details: SD, n = 3
AFF210 [3] = target: T3, AFF210 (Caldanaerobacter subterraneus, UniProt Q8RD41, C137S/D254S/INS245C/L167D); assay type: binding; details: SD, n = 3
AFF70 [4] = target: T1, AFF70; assay: Equilibrium fluorescence; assay type: binding
AFF186 [5] = target: T2, AFF186; assay: Equilibrium fluorescence; assay type: binding
AFF210 [6] = target: T3, AFF210; assay: Equilibrium fluorescence; assay type: binding
[7] = Thermal denaturation monitored by circular dichroism; assay type: physicochemical; details: E. coli RBP and its permutants, apo forms, Figure S7

Molecule | Kd (N′60) | Kd (N′70) | Kd (N′186) | Kd (N′210) | Kd (AFF70 [1]) | Kd (AFF186 [2]) | Kd (AFF210 [3]) | Kd (AFF70 [4]) | Kd (AFF186 [5]) | Kd (AFF210 [6]) | Tm [7]
OC1OC[C@@H](O)[C@@H](O)[C@H]1O (stereo partly drawn) [ribose, D-ribose] | 21.3 ± 1.1 nM | 2740 ± 240 nM | 38.1 ± 0.4 nM | 21.6 ± 1.4 nM | 46.6 ± 5.5 nM | 58.8 ± 0.17 nM | 26.1 ± 1.5 nM | 4200 nM | 12300 nM | 4200 nM | –
B1 | – | – | – | – | – | – | – | – | – | – | 55 °C
